From paper PMC5979531, “Structural Requirements of Alkylglyceryl-L-Ascorbic Acid Derivatives for Melanogenesis Inhibitory Activity” (International Journal of Molecular Sciences, 2018)

Columns and labels:
B16 melanoma 4A5 cells = test: Theophylline-stimulated melanogenesis inhibition (melanin content); format: cell-based, murine; details: 72 h; for Inhibition (%) of melanogenesis / inhibition at 3000 µM: 3000 µM; for IC50: theophylline (1 mM)-stimulated B16 melanoma 4A5 cells
Method: (§1) The effects on theophylline-stimulated melanogenesis and viability of B16 melanoma 4A5 cells were examined according to previously described protocols. Briefly, murine B16 melanoma 4A5 cells were seeded into 48-well plates in DMEM. After 24 h of culture, a test compound and theophylline (1 mM) were added and incubated for 72 h. The melanin content and cell viability were then measured. IC50 values were determined graphically.
Inhibition (%) was calculated using the following formula, where A and B indicate the optical density of the vehicle- and test compound-treated groups, respectively, and C indicates cell viability (%) (see below): Inhibition (%) = [(A − B)/A]/(C/100) × 100.

[1] = Cell viability of B16 melanoma 4A5 cells; format: cell-based, murine; details: mouse, B16 4A5 cells
Method: as §1

[2] = theophylline-stimulated B16 4A5 cells
[3] = Mus musculus, theophylline-stimulated B16 4A5 cells

| SMILES | Inhibition (%) of melanogenesis (B16 melanoma 4A5 cells; [2]) | inhibition at 1000 µM (B16 melanoma 4A5 cells; [3]) | inhibition at 3000 µM (B16 melanoma 4A5 cells; [3]) | IC50 (B16 melanoma 4A5 cells; Mus musculus) | viability at 72 h, 1000 µM [1] | viability at 72 h, 3000 µM [1] | inhibition at 100 µM (B16 melanoma 4A5 cells; [3]) | inhibition at 300 µM (B16 melanoma 4A5 cells; [3]) | viability at 72 h, 100 µM [1] | viability at 72 h, 300 µM [1] | inhibition at 3 µM (B16 melanoma 4A5 cells; Mus musculus, 3 µM, theophylline-stimulated B16 4A5 cells) | inhibition at 10 µM (B16 melanoma 4A5 cells; Mus musculus, 10 µM, theophylline-stimulated B16 4A5 cells) | inhibition at 30 µM (B16 melanoma 4A5 cells; Mus musculus, 30 µM, theophylline-stimulated B16 4A5 cells) | viability at 72 h, 3 µM ([1]; 3 µM) | viability at 72 h, 10 µM ([1]; 10 µM) | viability at 72 h, 30 µM ([1]; 30 µM) |
| --- | --- | --- | --- | --- | --- | --- | --- | --- | --- | --- | --- | --- | --- | --- | --- | --- |
| O=C1O[C@H]([C@@H](O)CO)C(O)=C1O[C@H]1O[C@H](CO)[C@@H](O)[C@H](O)[C@H]1O [2-O-α-D-Glucopyranosyl-AsA, reference compound] | significantly inhibit melanogenesis | -8.9 ± 2.7% | 15 ± 3.5% | > 3000 µM | 107% | 108% |  |  |  |  |  |  |  |  |  |  |
| OC[C@H]1O[C@@H](Oc2ccc(O)cc2)[C@H](O)[C@@H](O)[C@@H]1O [Arbutin, reference compound] |  | 63 ± 2.3% | 94 ± 2.8% | 830 µM | 96.2% | 106% | 32.2 ± 3.4% | 22.3 ± 4.3% | 92.2% | 96% |  |  |  |  |  |  |
| O=C1O[C@H]([C@H](O)CO)C(O)=C1O [Erythrobic acid, reference compound] |  | 75.8 ± 4.2% | 92.6 ± 15.3% |  | 44.5% | 29.8% | -22.9 ± 6.5% | -10.6 ± 4.8% | 98.7% | 94.8% |  |  |  |  |  |  |
| Oc1ccc(O)cc1 [Hydroquinone, reference compound] |  |  |  | 8.7 µM |  |  |  |  |  |  | 37.4 ± 3.7% | 59.5 ± 3.7% | 76.3 ± 2.1% | 94.1% | 85.2% | 64.3% |
| O=C1O[C@H]([C@@H](O)CO)C(O)=C1OP(=O)(O)O [Magnesium L-ascorbyl-2-phosphate, reference compound] | significantly inhibit melanogenesis | 2.1 ± 4.1% | 14.5 ± 1.3% | > 3000 µM | 126% | 92.8% |  |  |  |  |  |  |  |  |  |  |
| O=C1O[C@H]([C@@H](O)CO)C(OCC(O)CO)=C1O (stereo partly drawn) [compound 1, 3-O-(2,3-dihydroxypropyl)-AsA] |  | -5 ± 2.9% | 0.5 ± 2.5% | > 3000 µM | 100% | 108% | -11.8 ± 1.9% | -10.7 ± 1.1% | 100% | 96.8% |  |  |  |  |  |  |
| CCOC1=C(OCC(O)CO)[C@@H]([C@@H](O)CO)OC1=O (stereo partly drawn) [compound 2, 3-O-(2,3-dihydroxypropyl)-2-O-ethyl-AsA] |  | -8.9 ± 2% | 40.4 ± 8.6% | > 3000 µM | 101% | 104% | -28.1 ± 3.2% | -2.8 ± 3.6% | 101% | 99.7% |  |  |  |  |  |  |
| CCCOC1=C(OCC(O)CO)[C@@H]([C@@H](O)CO)OC1=O (stereo partly drawn) [compound 3, 3-O-(2,3-dihydroxypropyl)-2-O-propyl-AsA] |  | 2.5 ± 7.9% | 35.9 ± 3.4% | > 3000 µM | 94.5% | 95% | -2.1 ± 5.3% | 8.2 ± 3.2% | 102% | 98.2% |  |  |  |  |  |  |
| CCCCOC1=C(OCC(O)CO)[C@@H]([C@@H](O)CO)OC1=O (stereo partly drawn) [compound 4, 2-O-butyl-3-O-(2,3-dihydroxypropyl)-AsA] |  | 30.2 ± 5.1% | 58.9 ± 2.7% | 2220 µM | 93.9% | 88.7% | -1.2 ± 0.8% | 20.8 ± 10.6% | 94.5% | 97.4% |  |  |  |  |  |  |
| CCCCCOC1=C(OCC(O)CO)[C@@H]([C@@H](O)CO)OC1=O (stereo partly drawn) [compound 5, 3-O-(2,3-dihydroxypropyl)-2-O-pentyl-AsA] |  | 45.9 ± 1.2% | 81.9 ± 3.3% | 931 µM | 105% | 78.7% | -14 ± 9.7% | 29.8 ± 8.1% | 118% | 107% |  |  |  |  |  |  |
